Assays:
U2OS.SSTR2 cells = assay: Uptake/internalization studies in U2OS.SSTR2 cells; type: cell-based, human
Experimental: Cells were seeded in 6-well plates 24 h before the experiment (7 × 10^5 cells/well). […] The membrane-bound fraction was collected by incubating cells with an acid buffer (50 mM glycine, 100 mM NaCl, pH 2.8) for 10 min at rt. The internalized fraction was determined by lysing the cells with 1 M NaOH for 5 min at rt. Both fractions were measured in a gamma counter, and data were analyzed in GraphPad Prism v9 and expressed as percentage of added dose.

[1] = Ex vivo biodistribution in H69-tumor bearing mice; conditions: mouse, in vivo
Experimental: (§1) Six-week‐old female Balb/c nu/nu‐specific mice (Janvier Labs, Le Genest‐Saint‐Isle, France) were housed in individually ventilated cages (4 mice/cage). Upon arrival, mice were acclimated for one week, with access to food and water ad libitum. Mice were subcutaneously inoculated on the right shoulder with NCI-H69 cells (5 × 10^6 cells) suspended in 100 μL of 1/3 Matrigel (Corning Inc.; Corning, NY, USA) and 2/3 Hank’s balanced salt solution (Gibco; Paisley, UK). NCI-H69 xenografts were allowed to grow for 2 weeks.
(§2) At 3 selected time points (1, 4 and 24 h; n = 4) p.i., blood was collected via retro-orbital puncture under isoflurane/O2 anesthesia, after which the mice were sacrificed via cervical dislocation. The tumor and organs of interest (heart, lungs, liver, spleen, stomach, large intestine, small intestine, pancreas, kidneys, muscle, skin, bone) were excised, washed in PBS and blotted dry. […] To determine the total injected radioactivity per animal, a calibration curve with indium-111 was established using the gamma counter. The percentage of injected dose per gram (% ID/g) was determined for each tissue and corrected for both the injected activity and % ID present at the injection site (the tail). Then, the tumor and the organs were placed in a petri dish and ex vivo optical imaging was performed with the IVIS Spectrum system (Perkin Elmer, Waltham, MA, USA) using the following settings for all measurements: FOV 19.5 cm, medium binning, f2, 60 s exposure with an excitation/emission filter of 646 nm/662 nm. Living Image version 4.5.2 software (Perkin Elmer) was used to perform data analysis by drawing regions of interest around the organ/tissue to quantify the radiant efficiency {(photons/second/cm^2/steradian)/(μW/cm^2)}.

[2] = test system: H69-xenograft Balb/c nu/nu mice; assay: Ex vivo biodistribution in H69-tumor bearing mice; conditions: for Uptake in Tumor: i.v., n = 4
Experimental: as §1, §2

With `C[C@@H](O)[C@H](NC(=O)[C@@H]1CSSC[C@H](NC(=O)[C@@H](Cc2ccccc2)NC(=O)CN2CCN(CC(=O)O)CCN(CC(=O)O)CCN(CC(=O)O)CC2)C(=O)N[C@@H](Cc2ccc(O)cc2)C(=O)N[C@H](Cc2c[nH]c3ccccc23)C(=O)N[C@@H](CCCCN)C(=O)N[C@@H]([C@@H](C)O)C(=O)N1)C(=O)O` [[^111In]In-DOTA-TATE, metal not drawn, reference compound] the “Internalized fraction of radioactivity” value (U2OS.SSTR2 cells; 10^-9 M, 90 min, 37 °C) was 94%, the Total uptake (U2OS.SSTR2 cells; 10^-9 M, 90 min, 37 °C, % of added dose per 1,000,000 cells, n = 3) was 46.22 ± 4.58 % AD and the “Cell uptake with excess of unlabeled DOTA-TATE” value (U2OS.SSTR2 cells; 50-fold excess DOTA-TATE) was “almost completely blocked”. For the same compound, the tissue uptake at 4 h ([1]; Uptake in Intestines, 4 h block (co-injected 50 nmol DOTA-TATE), n = 4) was 0.57 ± 0.35 %ID/g, the tissue uptake at 4 h ([1]; Uptake in Kidneys, 4 h block (co-injected 50 nmol DOTA-TATE), n = 4) was 7.75 ± 1.03 %ID/g and the tissue uptake at 4 h ([1]; Uptake in Liver, 4 h block (co-injected 50 nmol DOTA-TATE), n = 4) was 0.15 ± 0.08 %ID/g. The tissue uptake at 4 h ([1]; Uptake in Skin, 4 h block (co-injected 50 nmol DOTA-TATE), n = 4) was 0.28 ± 0.13 %ID/g, the tissue uptake at 4 h ([1]; Uptake in Stomach, 4 h block (co-injected 50 nmol DOTA-TATE), n = 4) was 0.1 ± 0.03 %ID/g and the tissue uptake at 1 h ([1]; iv, Uptake in Blood, 1 h p.i., n = 4) was 0.41 ± 0.12 %ID/g. It also gave a tissue uptake at 24 h ([1]; iv, Uptake in Blood, 24 h p.i., n = 4) of 0.04 ± 0.03 %ID/g, a tissue uptake at 4 h ([1]; iv, Uptake in Bones, 4 h p.i., n = 4) of 0.13 ± 0.03 %ID/g and a tissue uptake at 24 h ([1]; iv, Uptake in Bones, 24 h p.i., n = 4) of 0.14 ± 0.05 %ID/g. The tissue uptake at 1 h ([1]; iv, Uptake in Heart, 1 h p.i., n = 4) was 0.16 ± 0.08 %ID/g, the tissue uptake at 4 h ([1]; iv, Uptake in Heart, 4 h p.i., n = 4) was 0.04 %ID/g and the tissue uptake at 1 h ([1]; iv, Uptake in Intestines, 1 h p.i., n = 4) was 0.74 ± 0.3 %ID/g. The tissue uptake at 4 h ([1]; iv, Uptake in Intestines, 4 h p.i., n = 4) was 0.77 ± 0.24 %ID/g, the tissue uptake at 24 h ([1]; iv, Uptake in Intestines, 24 h p.i., n = 4) was 0.13 ± 0.01 %ID/g and the tissue uptake at 1 h ([1]; iv, Uptake in Kidneys, 1 h p.i., n = 4) was 12.2 ± 1.33 %ID/g. It also gave a tissue uptake at 4 h ([1]; iv, Uptake in Kidneys, 4 h p.i., n = 4) of 10.6 ± 0.39 %ID/g, a tissue uptake at 24 h ([1]; iv, Uptake in Kidneys, 24 h p.i., n = 4) of 6.93 ± 1.02 %ID/g and a tissue uptake at 1 h ([1]; iv, Uptake in Liver, 1 h p.i., n = 4) of 0.21 ± 0.03 %ID/g. For the same compound, the tissue uptake at 4 h ([1]; iv, Uptake in Liver, 4 h p.i., n = 4) was 0.16 ± 0.01 %ID/g, the tissue uptake at 24 h ([1]; iv, Uptake in Liver, 24 h p.i., n = 4) was 0.08 ± 0.01 %ID/g and the tissue uptake at 1 h ([1]; iv, Uptake in Lungs, 1 h p.i., n = 4) was 0.86 ± 0.09 %ID/g. For the same compound, the tissue uptake at 4 h ([1]; iv, Uptake in Lungs, 4 h p.i., n = 4) was 0.52 ± 0.13 %ID/g, the tissue uptake at 4 h ([1]; iv, Uptake in Muscle, 4 h p.i., n = 4) was 0.02 %ID/g and the tissue uptake at 24 h ([1]; iv, Uptake in Muscle, 24 h p.i., n = 4) was 0.01 ± 0.01 %ID/g. The tissue uptake at 1 h ([1]; iv, Uptake in Pancreas, 1 h p.i., n = 4) was 2.9 ± 0.6 %ID/g, the tissue uptake at 4 h ([1]; iv, Uptake in Pancreas, 4 h p.i., n = 4) was 1.3 ± 0.1 %ID/g and the tissue uptake at 24 h ([1]; iv, Uptake in Pancreas, 24 h p.i., n = 4) was 0.6 ± 0.05 %ID/g. It also gave a tissue uptake at 1 h ([1]; iv, Uptake in Skin) of 0.49 ± 0.26 %ID/g, a tissue uptake at 4 h ([1]; iv, Uptake in Skin, 4 h p.i., n = 4) of 0.29 ± 0.09 %ID/g and a tissue uptake at 24 h ([1]; iv, Uptake in Skin, 24 h p.i., n = 4) of 0.13 ± 0.02 %ID/g. It also gave a tissue uptake at 24 h ([1]; iv, Uptake in Spleen) of 0.11 ± 0.01 %ID/g, a tissue uptake at 4 h ([1]; iv, Uptake in Spleen, 4 h p.i., n = 4) of 0.13 ± 0.02 %ID/g and a tissue uptake at 1 h ([1]; iv, Uptake in Stomach, 1 h p.i., n = 4) of 1.84 ± 0.18 %ID/g. It also gave a tissue uptake at 4 h ([1]; iv, Uptake in Stomach, 4 h p.i., n = 4) of 1.23 ± 0.16 %ID/g, a tissue uptake at 24 h ([1]; iv, Uptake in Stomach, 24 h p.i., n = 4) of 0.51 ± 0.13 %ID/g and a tissue uptake at 1 h ([1]; iv, Uptake in Tumor, 1 h p.i., n = 4) of about 5 %ID/g. The tissue uptake at 4 h ([1]; iv, Uptake in Tumor, 4 h p.i., n = 4) was 5.47 ± 0.3 %ID/g, the tissue uptake at 24 h ([1]; iv, Uptake in Tumor, 24 h p.i., n = 4) was about 3 %ID/g and the “Uptake in Tumor” value ([2]; 1 h p.i.) was 5.55 ± 1.31 % ID/g. For the same compound, the “Tumor uptake reduction by co-injection of an excess of DOTA-TATE” value ([2]; 4 h p.i., compared to the unblocked group) was 98% and the “Uptake in Tumor” value ([2]; 24 h p.i.) was 3.19 ± 0.29 % ID/g.

— paper PMC11111636 (EJNMMI Radiopharmacy and Chemistry, 2024)
